Assay results published in US10342806B2, “Hormone treatment for age-related hearing loss-presbycusis” (priority 2014, dated 2019).

Legend:
[1] = Tail-cuff plethysmography of blood pressure; format: in vivo, mouse; conditions: 0.0016 mg/day pellet, measured at 2 and 4 months
Protocol: (§1) FIG. 27(A) is graph showing the tail-cuff plethysmography of blood pressure for ALD treatments of 60 days and 120 days, compared to middle-age control mice. Diastolic blood pressures were measured for middle-aged (20-21 mon) CBA/CaJ mice and middle-age ALD treated (0.0016 mg/day continuous release through 120 days, one pellet for 60 days and subsequently a second pellet for 60 days) mice, each group, n=5. Pressures were taken at 60 and 120 days and compared to the middle-age control animals. Mean±SD for each group.
as §1, with “27(B)” for “27(A)”, “is a” for “is”, “Systolic” for “Diastolic”
During treatment, blood pressures were measured for the mice at 2 and 4 months after start of treatment.

[2] = system: CBA mice; conditions: ALD-treated aging CBA mice (Halonen et al. 2014); cited from earlier work
[3] = system: NKCC1; experiment: Tl-uptake in single HT-29 cells (FluxOR) for NKCC1 activity; format: cell-based, human; conditions: 24 single HT-29 cells per condition
Source text: Tl-uptake in single cells for the detection of NKCC1 activity. To measure NKCC1 activity, we used a fluorescence assay to assess cotransporter activity in single isolated HT-29 cells (Delpire & Austin, Kinase regulation of Na^+—K^+-2Cl^− cotransport in primary afferent neurons. J Physiol 588: 3365-3373, 2010, Geng, et al., The Ste20 kinases SPAK and OSR1 regulate NKCC1 function in sensory neurons. J Biol Chem 284: 14020-14028, 2009, Weaver, et al., A thallium-sensitive, fluorescence-based assay for detecting and characterizing potassium channel modulators in mammalian cells. J Biomol Screen 9: 671-677, 2004). HT-29 cells were incubated at 37° C./5% CO2 for 24 h before use. […] For the detection of fluorescence, the preincubation solution was removed, and the cells were treated with a 340.5 mosM hypertonic stimulus solution containing the following (in mM): (2.8 TISO4, 140 NaCl, 2 KCl, 2 CaCl2, 0.8 MgSO4, 5 glucose, 20 HEPES, 27 sucrose, 1 ouabain, and 2.7 probenecid) in the presence or absence of 20 μM bumetanide. […] FluxOR fluorescence (excitation/emission: 488/525 nm) was recorded after 90 s upon addition of 2.8 mM […] to the external medium. […]
Influence of ALD on NKCC1 transporter activity. […] To test this hypothesis, a more efficient and sensitive method, fluorescence Ion flux assays was adopted to measure NKCC1 transporter activity. […]

[4] = system: CBA/CaJ mice; experiment: Auditory brainstem response (ABR) thresholds in aging CBA/CaJ mice; format: in vivo, mouse
Protocol: After 60 (2 months) or 120 days (4 months) of ALD implantation, mice were anesthetized with a combination of ketamine and xylazine (100 μl i.p. of sterile saline containing 100 mg/ml ketamine and […]) for ABR measurements.
Auditory brainstem responses (ABRs) were measured again at 2 and 4 months after treatment started
Auditory brainstem responses were obtained as follows. The mice were anesthetized with a mixture of ketamine/xylazine (120 and 10 mg/kg body weight, respectively, intraperitoneal injection) prior to all experimental sessions. All recording sessions were completed in a soundproof acoustic chamber (IAC) with body temperature maintained with a heating pad. ABRs were measured using Biosig (TDT, Alachua, Fla.) data-acquisition system which recorded responses to 5 ms tone pips ([…] rise-fall times) with a cos^2 onset envelope, presented at rate of 29/sec. Wave I threshold was defined as the lowest intensity which elicited a clearly replicable response. ABRs were measured pre-treatment and post-treatment at 2 and 4 mon. The pre-treatment ABR threshold was used as the baseline to calculate the thresholds shifts. The wave I peak-to-peak amplitudes were analyzed. Data was compared using GraphPad Prism 5.0 (GraphPad Software, Inc. La Jolla, Calif., USA.
As male mice weigh on average 28.0 g at week 9 and female mice 23.1 g, doses of the anti-inflammatory were designed to bracket a dose of 5 mg/kg/day. A total five groups (n=8, half male and half female) were tested. Treatment continued for 120 days or until the mouse was euthanized. […] Death was confirmed by terminal phlebotomy/exsanguinations and perfusion.
Mice were treated at middle age, as above, using 0.0016 mg/day of D-aldosterone, a combination of 0.0016 mg/day of D-aldosterone and 0.042 mg/day of Aspirin; and a control placebo (saline).

C[C@]12CCC(=O)C=C1CC[C@@H]1[C@@H]2[C@@H](O)C[C@]2(C=O)[C@@H](C(=O)CO)CC[C@@H]12 [ALD, aldosterone]
diastolic or systolic blood pressure [1]: neither aging nor the hormone treatment appeared to affect either diastolic or systolic blood pressure | auditory temporal processing (prepulse inhibition) [2]: provocative increases in auditory temporal processing | bumetanide-sensitive Tl+ uptake fluorescence [3]: marked increase in fluorescence | ABR frequency response ([4]; 12, 24, 32, 36 kHz at 2 months and 4 months, 0.0016 mg/day): showed improvement | ABR thresholds, control vs ALD treated group ([4]; 24, 32 and 36 kHz, at 120 days): significantly elevated in the control, non-treated, group relative to the ALD treated group | ABR shift / ABR thresholds ([4]; 24 kHz and 36 kHz, 2 and 4 month of treatment, vs placebo, Example 7): reduced ABR shifts | ABR peak 1 amplitude ([4]; high sound levels, relative to the control group): increased significantly at high sound levels | dose optimal for ABR threshold improvements ([4]; slow-release subcutaneous pellets, doses 0.00048 to 0.00476 mg/day, 60 or 120 days, relative to age-matched control mice): 0.0016 mg/day
